In experiment [1] the target is ATM (Homo sapiens (Human), UniProt Q13315). In words: Caliper mobility shift assay for ATM. The experiment is classed as biochemical. Conditions: read-out: IC50 of inhibitory activity on ATM kinase. On the procedure: 1.2 Determination of the Inhibitory Activities of Compounds on ATM: Caliper Mobility Shift Assay for ATM
To a 96-well plate, 98 μL of DMSO and 2 μL of the 10 mM stock solution were added and mixed evenly so that the concentration of the solution was 200 μM.
Based on the inhibitory rates of the compound at different concentrations, IC50 was calculated according to the formula: Y=Bottom+(Top−Bottom)/(1+(IC50/X)^HillSlope).

The subject of experiment [2] is subcutaneous xenograft tumor of human glioblastoma LN-18. The experiment is described as follows: LN-18 subcutaneous xenograft, combined with radiotherapy. Format: in vivo, NOG mice. Conditions: compound 10 mg/kg intragastric qd × 5 + IR 1 Gy, day 17. The method, then: 9 Efficacy Test of the Compounds of the Present Disclosure Combined with Radiotherapy on Inhibiting the Growth of Subcutaneous Xenograft Tumor of Human Glioblastoma LN-18
9.1 Experimental Animals: NOG Mice, SPF, Female, 18 to 22 g.
LN-18 tumor cells, DMEM medium:fetal bovine serum=95%:5%, accompanied by adding 100 U/mL penicillin and 100 μg/mL streptomycin, 37° C., 5% CO2.
LN18 tumor cells resuspended in serum-free DMEM medium were inoculated subcutaneously in the right costal region of experimental animals at 1.5*10^7/0.15 mL, and the animals were grouped when the tumor grew to 100 to 150 mm^3. Radiotherapy was performed 1 h after administration of compounds.
Tumor volume: The tumor volume was measured twice a week with a vernier caliper, and the long diameter and short diameter of tumor were measured. The tumor volume was calculated as follows: tumor volume (TV)=0.5×long diameter×short diameter^2. Tumor growth inhibitory rate (TGI %) was calculated according to the tumor volume. TVXn represents the mean tumor volume on day n of the treatment group, TVX0 represents the mean tumor volume on day 0 of the treatment group, TVMn represents the mean tumor volume on day n of the control group, and TVM0 represents the mean tumor volume on day 0 of the control group.

These results are taken from patent US20240294545A1 (CSPC Zhongqi Pharmaceutical Technology (Shijiazhuang) Co., …, priority 2020, published 2024).

Marks after values point to notes of the source that are not given here.

ATM, sequence (Q13315 whole entry): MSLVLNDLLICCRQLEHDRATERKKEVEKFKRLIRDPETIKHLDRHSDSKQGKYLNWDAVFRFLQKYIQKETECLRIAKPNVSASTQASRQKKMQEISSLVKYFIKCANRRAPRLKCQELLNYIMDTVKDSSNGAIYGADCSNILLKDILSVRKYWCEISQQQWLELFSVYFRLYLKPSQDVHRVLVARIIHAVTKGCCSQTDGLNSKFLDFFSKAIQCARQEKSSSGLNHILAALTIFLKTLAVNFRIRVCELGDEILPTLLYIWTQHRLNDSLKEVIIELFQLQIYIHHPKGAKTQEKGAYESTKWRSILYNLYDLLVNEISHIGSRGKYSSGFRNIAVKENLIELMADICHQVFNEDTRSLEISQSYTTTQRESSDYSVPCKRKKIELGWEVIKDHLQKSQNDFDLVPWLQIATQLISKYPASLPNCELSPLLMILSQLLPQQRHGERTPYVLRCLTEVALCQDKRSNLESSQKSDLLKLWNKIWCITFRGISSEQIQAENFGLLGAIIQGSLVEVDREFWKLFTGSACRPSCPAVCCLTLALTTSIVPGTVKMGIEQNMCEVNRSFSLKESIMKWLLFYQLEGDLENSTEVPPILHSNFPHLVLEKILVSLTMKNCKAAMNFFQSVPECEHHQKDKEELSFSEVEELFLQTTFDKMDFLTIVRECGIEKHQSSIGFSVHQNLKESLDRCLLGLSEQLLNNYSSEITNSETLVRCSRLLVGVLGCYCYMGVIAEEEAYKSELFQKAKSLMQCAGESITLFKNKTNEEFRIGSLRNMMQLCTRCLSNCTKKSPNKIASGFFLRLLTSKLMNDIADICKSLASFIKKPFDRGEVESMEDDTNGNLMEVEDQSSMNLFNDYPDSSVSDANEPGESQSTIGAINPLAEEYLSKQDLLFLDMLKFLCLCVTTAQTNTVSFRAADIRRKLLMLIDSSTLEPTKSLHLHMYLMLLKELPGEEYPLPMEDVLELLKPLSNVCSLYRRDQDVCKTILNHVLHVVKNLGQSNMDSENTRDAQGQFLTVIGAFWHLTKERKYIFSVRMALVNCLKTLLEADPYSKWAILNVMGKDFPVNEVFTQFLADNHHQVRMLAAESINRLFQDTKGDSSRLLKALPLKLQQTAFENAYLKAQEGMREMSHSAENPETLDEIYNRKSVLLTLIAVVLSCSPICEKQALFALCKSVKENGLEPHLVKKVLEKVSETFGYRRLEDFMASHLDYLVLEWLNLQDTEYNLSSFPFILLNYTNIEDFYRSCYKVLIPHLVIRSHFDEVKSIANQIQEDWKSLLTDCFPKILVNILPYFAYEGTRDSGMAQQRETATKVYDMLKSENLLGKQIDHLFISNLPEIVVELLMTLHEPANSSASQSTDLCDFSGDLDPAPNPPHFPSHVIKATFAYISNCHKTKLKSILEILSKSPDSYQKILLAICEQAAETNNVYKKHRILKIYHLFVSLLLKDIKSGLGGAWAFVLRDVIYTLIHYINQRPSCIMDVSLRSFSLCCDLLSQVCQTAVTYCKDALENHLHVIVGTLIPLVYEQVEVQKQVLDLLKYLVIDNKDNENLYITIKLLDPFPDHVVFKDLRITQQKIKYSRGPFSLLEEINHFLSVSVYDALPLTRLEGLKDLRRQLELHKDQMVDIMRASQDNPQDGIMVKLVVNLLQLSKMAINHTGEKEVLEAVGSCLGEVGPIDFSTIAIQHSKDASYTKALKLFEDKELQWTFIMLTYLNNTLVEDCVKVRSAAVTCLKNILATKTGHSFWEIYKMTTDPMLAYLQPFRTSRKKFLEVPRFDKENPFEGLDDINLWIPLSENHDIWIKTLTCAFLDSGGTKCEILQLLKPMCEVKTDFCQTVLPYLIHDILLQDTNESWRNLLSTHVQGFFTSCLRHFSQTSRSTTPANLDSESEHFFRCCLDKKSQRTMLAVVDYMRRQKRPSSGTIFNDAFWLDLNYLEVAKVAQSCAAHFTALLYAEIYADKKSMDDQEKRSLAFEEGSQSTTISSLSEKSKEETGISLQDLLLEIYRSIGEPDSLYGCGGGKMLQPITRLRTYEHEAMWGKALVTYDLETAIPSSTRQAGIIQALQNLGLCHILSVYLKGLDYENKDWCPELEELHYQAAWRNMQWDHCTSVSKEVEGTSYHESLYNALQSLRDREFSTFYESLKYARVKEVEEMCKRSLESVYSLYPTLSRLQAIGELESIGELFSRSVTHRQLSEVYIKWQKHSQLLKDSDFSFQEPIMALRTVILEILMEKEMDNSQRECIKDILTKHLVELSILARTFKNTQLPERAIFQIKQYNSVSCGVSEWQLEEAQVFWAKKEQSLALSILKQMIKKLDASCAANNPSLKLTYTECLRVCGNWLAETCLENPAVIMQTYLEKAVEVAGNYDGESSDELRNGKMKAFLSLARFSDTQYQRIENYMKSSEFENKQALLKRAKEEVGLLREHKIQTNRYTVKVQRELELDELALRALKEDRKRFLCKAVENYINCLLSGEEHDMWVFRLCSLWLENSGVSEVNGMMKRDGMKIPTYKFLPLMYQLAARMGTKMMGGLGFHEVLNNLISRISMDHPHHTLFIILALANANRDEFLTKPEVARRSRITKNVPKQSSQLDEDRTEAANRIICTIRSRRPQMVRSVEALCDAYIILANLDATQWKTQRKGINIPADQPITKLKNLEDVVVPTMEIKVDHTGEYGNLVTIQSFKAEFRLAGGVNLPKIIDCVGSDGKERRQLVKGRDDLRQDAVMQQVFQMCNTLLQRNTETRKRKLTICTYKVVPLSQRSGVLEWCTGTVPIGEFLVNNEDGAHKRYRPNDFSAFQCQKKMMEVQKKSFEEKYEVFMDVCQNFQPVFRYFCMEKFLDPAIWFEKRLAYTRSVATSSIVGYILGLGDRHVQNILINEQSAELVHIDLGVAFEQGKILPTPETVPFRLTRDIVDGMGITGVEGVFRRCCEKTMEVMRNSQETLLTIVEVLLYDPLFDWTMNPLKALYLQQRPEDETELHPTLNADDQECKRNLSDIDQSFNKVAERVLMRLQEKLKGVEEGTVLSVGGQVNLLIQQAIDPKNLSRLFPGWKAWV

For `COc1cc2ncc3c4c2c(c1-c1cnn(C)c1)OCC(c1ccccn1)n4c(=O)n3C` (centres unmarked) [Example A-30, 6-methoxy-2-methyl-7-(1-methyl-1H-pyrazol-4-yl)-10-(pyridin-2-yl)-9,10-dihydro-8-oxa-2,4,10a-triazanaphtho[2,1,8-cde]azulen-1(2H)-one], in experiment [1], the IC50 (as a rule, the concentration at which inhibition is half-maximal) was 270 pM.

With `C[C@@H]1COc2c(-c3ccc(OCCCN4CCCCC4)nc3)c(F)cc3ncc4c(c23)n1c(=O)n4C` [Example A-4, (R)-6-fluoro-2,10-dimethyl-7-(6-(3-(piperidin-1-yl)propoxy)pyridin-3-yl)-9,10-dihydro-8-oxa-2,4,10a-triazanaphtho[2,1,8-cde]azulen-1(2H)-one], the IC50 in experiment [1] stood at 900 pM.

As to `CC[C@H]1CNc2c(-c3ccc(OCCCN4CCCCC4)nc3)c(F)cc3ncc4c(c23)n1c(=O)n4C` [Example A-196, (S)-10-ethyl-6-fluoro-2-methyl-7-(6-(3-(piperidin-1-yl)propoxy)pyridin-3-yl)-2,8,9,10-tetrahydro-1H-2,4,8,10a-tetraazanaphtho[2,1,8-cde]azulen-1(2H)-one], the IC50 in experiment [1] was found to be 510 pM.

On to `C[C@H]1CNc2c(-c3ccc(OCCCN4CCCCC4)nc3)c(F)cc3ncc4c(c23)n1c(=O)n4C` [Example A-191, (S)-6-fluoro-2,10-dimethyl-7-(6-(3-(piperidin-1-yl)propoxy)pyridin-3-yl)-2,8,9,10-tetrahydro-1H-2,4,8,10a-tetraazanaphtho[2,1,8-cde]azulen-1(2H)-one], for which the IC50 in experiment [1] was found to be 690 pM. In experiment [2], the “D 17 TGI” value was found to be 76.9% and the “D 17 TV (MEAN ± SD)” value was 347 ± 64***^ mm^3.

For the compound `Cn1c(=O)n2c3c4c(c(-c5ccc(OCCCN6CCCCC6)nc5)c(F)cc4ncc31)OC[C@@H]2Cc1ccccc1` [Example A-13, (S)-10-benzyl-6-fluoro-2-methyl-7-(6-(3-(piperidin-1-yl)propoxy)pyridin-3-yl)-9,10-dihydro-8-oxa-2,4,10a-triazanaphtho[2,1,8-cde]azulen-1(2H)-one], the IC50 in experiment [1] turned out to be 400 pM.

Turning to `Cn1c(=O)n2c3c4c(c(-c5ccc(OCCCN6CCCCC6)nc5)ccc4ncc31)OCC21CCC1` [Example A-176, 2-methyl-7-(6-(3-(piperidin-1-yl)propoxy)pyridin-3-yl)-2,9-dihydro-1H-spiro[8-oxa-2,4,10a-triazanaphtho[2,1,8-cde]azulene-10,1′-cyclobutan]-1-one], the IC50 in experiment [1] is 170 pM.

With `Cn1c(=O)n2c3c4c(c(-c5ccc(OCCCN6CC[C@H](C#N)C6)nc5)c(F)cc4ncc31)OCC21CCC1` [Example A-160], in experiment [1], the IC50 amounted to 430 pM.

Turning to `C[C@H]1COc2c(-c3ccc(OCCCN(C)C)nc3)ccc3ncc4c(c23)n1c(=O)n4C` [Example A-178, (S)-7-(6-(3-(dimethylamino)propoxy)pyridin-3-yl)-2,10-dimethyl-9,10-dihydro-8-oxa-2,4,10a-triazanaphtho[2,1,8-cde]azulen-1(2H)-one], the IC50 in experiment [1] worked out at 250 pM.

For `Cn1c(=O)n2c3c4c(c(-c5ccc(OCCCN6CCCC6)nc5)c(F)cc4ncc31)OCC21CCC1` [Example A-162, 6-fluoro-2-methyl-7-(6-(3-(pyrrolidin-1-yl)propoxy)pyridin-3-yl)-2,9-dihydro-1H-spiro[8-oxa-2,4,10a-triazanaphtho[2,1,8-cde]azulene-10,1′-cyclobutan]-1-one], the IC50 in experiment [1] is 360 pM.

Turning to `Cn1c(=O)n2c3c4c(c(-c5ccc(OCCCN6CCCCC6)nc5)c(F)cc4ncc31)OC[C@H]2Cc1ccccc1` [Example A-14, (R)-10-benzyl-6-fluoro-2-methyl-7-(6-(3-(piperidin-1-yl)propoxy)pyridin-3-yl)-9,10-dihydro-8-oxa-2,4,10a-triazanaphtho[2,1,8-cde]azulen-1(2H)-one], the 50% inhibitory concentration (IC50) in experiment [1] came out at 420 pM.

Take `CC[C@H]1COc2c(-c3ccc(OCCCN4CCCCC4)nc3)ccc3ncc4c(c23)n1c(=O)n4C` [Example A-186, (S)-10-ethyl-2-methyl-7-(6-(3-(piperidin-1-yl)propoxy)pyridin-3-yl)-9,10-dihydro-8-oxa-2,4,10a-triazanaphtho[2,1,8-cde]azulen-1(2H)-one]: the IC50 in experiment [1] is 380 pM.

Turning to `Cn1c(=O)n2c3c4c(c(-c5ccc(OCCCN6CCCCC6)nc5)c(F)cc4ncc31)OCC21CCC1` [Example A-28, 6-fluoro-2-methyl-7-(6-(3-(piperidin-1-yl)propoxy)pyridin-3-yl)-2,9-dihydro-1H-spiro[8-oxa-2,4,10a-triazanaphtho[2,1,8-cde]azulene-10,1′-cyclobutan]-1-one], the IC50 in experiment [1] was 280 pM.

As for `C[C@H]1COc2c(-c3ccc(OCCCN4CCC(C)(C)CC4)nc3)ccc3ncc4c(c23)n1c(=O)n4C` [Example A-207, (S)-7-(6-(3-(4,4-dimethylpiperidin-1-yl)propoxy)pyridin-3-yl)-2,10-dimethyl-9,10-dihydro-8-oxa-2,4,10a-triazanaphtho[2,1,8-cde]azulen-1(2H)-one], the IC50 in experiment [1] was found to be 440 pM.

For the compound `Cn1c(=O)n2c3c4c(c(-c5ccc(OCCCN6CCCCC6)nc5)c(F)cc4ncc31)OCC21CC1` [Example A-11, 6-fluoro-2-methyl-7-(6-(3-(piperidin-1-yl)propoxy)pyridin-3-yl)-2,9-dihydro-1H-spiro[8-oxa-2,4,10a-triazanaphtho[2,1,8-cde]azulene-10,1-cyclopropan]-1-one], in experiment [1], the IC50 turned out to be 540 pM.

Regarding `COc1cc2ncc3c4c2c(c1-c1ccc(OCCCN2CCCCC2)nc1)OC[C@@H](C)n4c(=O)n3C` [Example A-32, (R)-6-methoxy-2,10-dimethyl-7-(6-(3-(piperidin-1-yl)propoxy)pyridin-3-yl)-9,10-dihydro-8-oxa-2,4,10a-triazanaphtho[2,1,8-cde]azulen-1(2H)-one], the IC50 in experiment [1] came out at 940 pM.
